Experimental data published in patent US20110171332A1, “LEUCOJUM BULB EXTRACTS AND USE THEREOF” (I.B.R. ISRAELI BIOTECHNOLOGY RESEARCH LTD., priority 2008, published 2011).

Test system: nerve-muscle co-culture
Test: Muscle contraction frequency in nerve-muscle co-culture
Format: cell-based, human, rat
Conditions: carisoprodol 5×10^−3M; for Contraction (%): % of contractions at T0; for Contraction (%) / Result: single wells
Procedure: The nerve-muscle co-culture model is a model suited to studying the influence of a substance on a muscle contraction frequency. The number of muscular contractions is counted during a given time, before and after applying the examined substance to the co-culture. The number of contractions in the presence of the substance is expressed in percentage compared to the initial number of contractions. An inhibitory effect on muscle contraction is determined if a significant reduction or blocking of the muscular contraction frequency is observed in at least 2 wells out of 3 wells containing the nerve-muscle co-culture.
Human muscular cells were seeded in 24-wells culture plates. Cells were incubated at 37° C., 5% CO2 during the entire culture duration.
After 5 days of culture, spinal cords were isolated from rat embryos, and were cut in small parts (explants). One explant per culture well was placed on the muscular cells, and both cell types were cultivated in 24-wells plate for 21 days.
During the cultivation period, the muscular cells merge and form muscular fibers. The motor neurons present in the spinal cord emit nervous extensions which contact the muscular fibers. Neuro-muscular junctions are formed and muscular contractions appear.
After 21 days of co-culture, the model was mature and functional. The muscular fibers innervated spontaneously and contracted in a regular way.
A stock solution of the test extract was prepared in the culture medium. This solution was applied to the nerve-muscle culture.
The culture medium alone served as a negative control.
The positive control was carisoprodol, a drug which blocks the muscular contraction in a reversible way. A stock solution of carisoprodol was prepared in DMSO at 1M. This solution was diluted at 1/200 into the culture medium (final concentration of 5×10^−3M). Three culture wells were used per treatment (control/test extract).
The trial started at the 21st day of the culture.
The microscope is equipped with a motorized stage piloted by a LUCIA software. It is also combined with a camera and connected to a computer allowing the recording of video sequences.
For each selected culture well, a muscle fiber showing regular contractions is referenced. The XY data of this fiber were registered using the LUCIA software. The frequency of the contractions of this fiber was manually counted during 30 seconds, and a video sequence was recorded (T0). The same operation was carried out for all wells.
The test extract and the references were applied to the nerve-muscle culture, and the trial system was incubated at 37° C., 5% CO2.
After 2 hours, 6 hours and 24 hours of incubation, the contraction frequency was counted again during 30 seconds and a video sequence was also recorded for each counting.
For each culture well, the number of muscular contractions counted in the presence of the examined extract is expressed in percentage compared to the number of contractions counted before extract application (T0).
When the frequency of contractions is in the range of between 80%-120% compared to T0, the modulation of the muscular contractions frequency is not considered as significant. This range is based on the fact that during the time, the muscular contraction frequency can vary slightly, independent on the conditions applied.
The results are expressed as follows: • No significant variation in the muscular contractions frequency: contractions percentage between 80 and 120%, symbolized by (=) • A significant reduction in the muscular contractions frequency: contractions percentage <80%, symbolized by (−). • Blocking of the muscular contractions frequencies: contractions percentage=0%, symbolized by (0) • A significant increase in the muscular contractions frequencies: contractions percentage >120%, symbolized by (+).
The product effect is assessed only if the same result is obtained in at least 2 out of 3 culture wells (i.e. 2 out of 3 muscle fibers).

CCCC(C)(COC(N)=O)COC(=O)NC(C)C (stereo not shown) [Carisoprodol, carisoprodol]
conclusion (2 h incubation): Blocked | Contraction (%) (2 h incubation): 0% | conclusion (2 h incubation, listed as carisoprodol): complete blockage | Result (2 h incubation): 0 (Blocking of the muscular contractions frequencies: contractions percentage=0%) | conclusion (6 h incubation): Blocked | Contraction (%) (6 h incubation): 0% | conclusion (6 h incubation, listed as carisoprodol): complete blockage | Result (6 h incubation): 0 (Blocking of the muscular contractions frequencies: contractions percentage=0%) | conclusion (24 h incubation): Blocked | Contraction (%) (24 h incubation): 0% | conclusion (24 h incubation, listed as carisoprodol): complete blockage | Result (24 h incubation): 0 (Blocking of the muscular contractions frequencies: contractions percentage=0%) | reversibility of the effect on muscle contractions after rinsing off (after rinsing off): reversible
